Reference: the supplement of paper PMC10307832

Assays:
Assay in all cases: relative viability (nuclei count vs DMSO), 5 days (fraction); higher = more cells survive
[1] = compound: C1CNCCC1C2=CC(=NN2)C3=CC=NC=C3 + CC(=O)c1c(C)c2cnc(Nc3ccc(N4CCNCC4)cn3)nc2n(C2CCCC2)c1=O [Palbociclib] (partner 0.5 µM)
Summary of the method: (§1)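 One day after seeding in 1536-well plates, lung cancer cell lines were dosed by pin tool. Dosing was either single-drug or a fixed anchor-drug dose plus five library-drug doses (not always all listed) in √10 steps. After 5 days, nuclei were stained in one fix-and-stain step and counted on 4× images, and relative viability is the nuclei count of treated wells over that of vehicle wells, given as the median of duplicate plates.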

[2] = compound: C1CNCCC1C2=CC(=NN2)C3=CC=NC=C3 + CCNC(=O)c1noc(-c2cc(C(C)C)c(O)cc2O)c1-c1ccc(CN2CCOCC2)cc1 [Luminespib] (partner 0.01 µM)
Summary of the method: as §1

[3] = compound: C1CNCCC1C2=CC(=NN2)C3=CC=NC=C3 + O=C(c1cc(Cc2n[nH]c(=O)c3ccccc23)ccc1F)N1CCN(C(=O)C2CC2)CC1 [Olaparib] (partner 8 µM)
Summary of the method: as §1

[4] = compound: C[C@@H](N)c1ccc(C(=O)Nc2ccnc3[nH]ccc23)cc1 + O=C(CCCCCCC(=O)Nc1ccccc1)NO [Vorinostat] (partner 1 µM)
Summary of the method: as §1

UMC-11
relative viability ([1]; first compound 0.08 µM): 0.317
relative viability ([1]; first compound 0.8 µM): 0.343
relative viability ([1]; first compound 2.53 µM): 0.325
relative viability ([1]; first compound 8 µM): 0.333
relative viability ([2]; first compound 0.08 µM): 0.959
relative viability ([2]; first compound 0.8 µM): 1.19
relative viability ([2]; first compound 2.53 µM): 1.05
relative viability ([2]; first compound 8 µM): 1.14
relative viability ([3]; first compound 0.08 µM): 0.403
relative viability ([3]; first compound 0.8 µM): 0.379
relative viability ([3]; first compound 2.53 µM): 0.436
relative viability ([3]; first compound 8 µM): 0.365
relative viability ([4]; first compound 0.04 µM): 0.459
relative viability ([4]; first compound 0.1265 µM): 0.514
relative viability ([4]; first compound 0.4 µM): 0.515
relative viability ([4]; first compound 1.265 µM): 0.504
relative viability ([4]; first compound 4 µM): 0.356
